Here are results for 22 molecules from patent US10858362B2, “Imidazopyrazinones as PDE1 inhibitors” (H. Lundbeck A/S, priority 2015, dated 2020).

Common to all, as to format: biochemical
The target in one test is PDE1A (Homo sapiens (Human), UniProt P54750). Nature of the test: PDE1 inhibition assay, PDE1A. The following applies: for IC50: 15 nM tritium labelled cAMP; for inhibition at 10 µM: read-out: PDE1A, % inhibition (at 10 μM); for percent inhibition of PDE1A at 2 µM: % sign not given. The procedure:
Reactions were initiated by addition of the cyclic nucleotide substrate, and reactions were allowed to proceed for 1 h at room temperature before being terminated through mixing with 20 μL (0.2 mg) yttrium silicate SPA beads (PerkinElmer).

The target of another test is PDE1B (Homo sapiens (Human), UniProt Q01064). Nature of the test: PDE1 inhibition assay, PDE1B. The following applies: for IC50: 15 nM tritium labelled cAMP; for inhibition at 1 µM: read-out: PDE1B, % inhibition (at 1 μM). The procedure:
(§1) Reactions were initiated by addition of the cyclic nucleotide substrate, and reactions were allowed to proceed for 1 h at room temperature before being terminated through mixing with 20 μL (0.2 mg) yttrium silicate SPA beads (PerkinElmer). The beads were allowed to settle for 1 h in the dark before the plates were counted in a Wallac 1450 Microbeta counter.

A further test has as its target PDE1C (Homo sapiens (Human), UniProt Q14123). Nature of the test: PDE1 inhibition assay, PDE1C. The conditions noted are these: for IC50: 15 nM tritium labelled cAMP. As for the experimental part: as §1
The target of the next test is PDE9 (Homo sapiens (Human), UniProt O76083). The test is described as follows: PDE9 inhibition assay. As for the experimental part:
A PDE9 assay may for example, be performed as follows: The assay is performed in 60 μL samples containing a fixed amount of the relevant PDE enzyme (sufficient to convert 20-25% of the cyclic nucleotide substrate), a buffer (50 mM HEPES7.6; 10 mM MgCl2; 0.02% Tween20), 0.1 mg/ml BSA, 225 pCi of ^3H-labelled cyclic nucleotide substrate, tritium labeled cAMP to a final concentration of 5 nM and varying amounts of inhibitors. Reactions are initiated by addition of the cyclic nucleotide substrate, and reactions are allowed to proceed for one hr at room temperature before being terminated through mixing with 15 μL 8 mg/mL yttrium silicate SPA beads (Amersham). The beads are allowed to settle for one hr in the dark before the plates are counted in a Wallac 1450 Microbeta counter.
In the context of the present invention the assay was performed in 60 μL assay buffer (50 mM HEPES pH 7.6; 10 mM MgCl2; 0.02% Tween20) containing enough PDE9 to convert 20-25% of 10 nM ^3H-cAMP and varying amounts of inhibitors. Following a 1 hr incubation the reactions were terminated by addition of 15 μL 8 mg/mL yttrium silicate SPA beads (Amersham). The beads were allowed to settle for one hr in the dark before the plates were counted in a Wallac 1450 Microbeta counter.

The structures appear in SMILES notation.

Chain of PDE1B (Q01064 whole entry): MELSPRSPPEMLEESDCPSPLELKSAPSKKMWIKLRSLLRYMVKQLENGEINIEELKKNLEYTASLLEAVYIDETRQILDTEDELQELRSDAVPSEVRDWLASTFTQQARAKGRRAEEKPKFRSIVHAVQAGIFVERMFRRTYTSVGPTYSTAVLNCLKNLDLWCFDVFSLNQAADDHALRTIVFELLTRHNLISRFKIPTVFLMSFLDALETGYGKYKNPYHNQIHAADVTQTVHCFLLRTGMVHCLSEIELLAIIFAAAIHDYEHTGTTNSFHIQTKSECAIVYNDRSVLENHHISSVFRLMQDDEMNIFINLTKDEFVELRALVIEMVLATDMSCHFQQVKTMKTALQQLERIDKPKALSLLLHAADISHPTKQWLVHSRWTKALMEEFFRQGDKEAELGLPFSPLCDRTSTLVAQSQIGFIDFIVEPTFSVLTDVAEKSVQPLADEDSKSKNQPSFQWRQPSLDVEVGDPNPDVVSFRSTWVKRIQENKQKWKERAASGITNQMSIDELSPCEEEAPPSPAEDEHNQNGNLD
Chain of PDE9 (O76083 whole entry): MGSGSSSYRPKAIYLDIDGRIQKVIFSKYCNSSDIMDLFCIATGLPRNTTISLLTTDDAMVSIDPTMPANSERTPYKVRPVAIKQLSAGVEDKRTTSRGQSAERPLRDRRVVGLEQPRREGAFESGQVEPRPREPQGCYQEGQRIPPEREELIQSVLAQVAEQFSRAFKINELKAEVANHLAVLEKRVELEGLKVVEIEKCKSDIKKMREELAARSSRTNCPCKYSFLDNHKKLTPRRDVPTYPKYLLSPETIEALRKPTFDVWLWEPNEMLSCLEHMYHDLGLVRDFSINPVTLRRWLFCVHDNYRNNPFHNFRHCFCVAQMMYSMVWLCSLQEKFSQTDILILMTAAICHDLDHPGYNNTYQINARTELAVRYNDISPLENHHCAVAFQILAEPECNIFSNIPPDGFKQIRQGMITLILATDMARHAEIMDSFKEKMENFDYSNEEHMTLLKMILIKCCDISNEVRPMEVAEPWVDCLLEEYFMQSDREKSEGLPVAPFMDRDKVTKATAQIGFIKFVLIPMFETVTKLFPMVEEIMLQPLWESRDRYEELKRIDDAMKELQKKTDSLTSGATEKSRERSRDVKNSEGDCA
Chain of PDE1A (P54750 whole entry): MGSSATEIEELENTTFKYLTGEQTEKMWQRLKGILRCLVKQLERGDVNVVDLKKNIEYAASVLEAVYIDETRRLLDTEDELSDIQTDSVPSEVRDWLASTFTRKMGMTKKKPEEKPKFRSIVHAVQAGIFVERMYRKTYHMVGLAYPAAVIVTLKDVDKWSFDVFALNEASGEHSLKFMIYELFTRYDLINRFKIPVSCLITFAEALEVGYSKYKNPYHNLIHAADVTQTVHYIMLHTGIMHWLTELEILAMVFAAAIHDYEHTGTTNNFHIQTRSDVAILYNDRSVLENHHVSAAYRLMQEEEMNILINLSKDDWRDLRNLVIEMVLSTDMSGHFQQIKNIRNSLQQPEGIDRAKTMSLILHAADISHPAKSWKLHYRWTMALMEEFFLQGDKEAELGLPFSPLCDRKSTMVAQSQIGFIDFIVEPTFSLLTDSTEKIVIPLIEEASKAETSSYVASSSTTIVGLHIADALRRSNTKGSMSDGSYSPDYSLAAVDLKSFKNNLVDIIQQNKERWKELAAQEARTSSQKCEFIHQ
Chain of PDE1C (Q14123 whole entry): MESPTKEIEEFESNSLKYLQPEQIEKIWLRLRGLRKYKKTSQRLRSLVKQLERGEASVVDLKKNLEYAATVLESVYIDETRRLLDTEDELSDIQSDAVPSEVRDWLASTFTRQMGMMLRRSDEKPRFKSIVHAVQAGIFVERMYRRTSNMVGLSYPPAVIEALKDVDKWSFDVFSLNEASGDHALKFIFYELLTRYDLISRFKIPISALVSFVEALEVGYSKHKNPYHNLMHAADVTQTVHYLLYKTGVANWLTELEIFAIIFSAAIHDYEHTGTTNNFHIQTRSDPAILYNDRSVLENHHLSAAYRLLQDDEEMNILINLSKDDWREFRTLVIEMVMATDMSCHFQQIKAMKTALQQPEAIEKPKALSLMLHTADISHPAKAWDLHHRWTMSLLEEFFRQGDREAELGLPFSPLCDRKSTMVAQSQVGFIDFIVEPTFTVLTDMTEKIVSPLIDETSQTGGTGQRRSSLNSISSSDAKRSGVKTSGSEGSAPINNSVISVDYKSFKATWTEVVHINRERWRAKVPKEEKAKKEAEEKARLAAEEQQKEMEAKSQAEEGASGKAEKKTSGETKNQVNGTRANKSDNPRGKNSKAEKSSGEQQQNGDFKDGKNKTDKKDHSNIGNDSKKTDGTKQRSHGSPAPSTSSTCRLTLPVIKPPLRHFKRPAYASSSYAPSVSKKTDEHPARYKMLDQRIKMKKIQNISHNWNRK

As a reminder, the IC50 is the concentration at which inhibition is half-maximal. A lower IC50 goes with higher potency. One may read the inhibition as the drop in the measured response relative to a control, in per cent. Consider `COc1ccc(Cn2c(C)cn3c(N4CCOCC4)ncc3c2=O)cc1` [Example 93, 3-(morpholino)-7-(4-methoxybenzyl)-6-methylimidazo[1,5-a]pyrazin-8(7H)-one], for which the 50% inhibitory concentration (IC50) is 0.096 µM against PDE1A, 0.052 µM against PDE1B and 0.099 µM against PDE1C. Further, at PDE9, the inhibition at 10 µM was found to be 23%.

For `Cc1cn2c(C3CCOCC3)ncc2c(=O)n1Cc1cscn1` [Example 80, 6-methyl-3-(tetrahydro-2H-pyran-4-yl)-7-(thiazol-4-ylmethyl)imidazo[1,5-a]pyrazin-8(7H)-one], the results for the inhibition at 10 µM on PDE1A and against PDE9 were 72% and 18%, respectively. Besides, the IC50 against PDE1B was 1.31 µM; at PDE1C it was 0.496 µM.

Take `COc1ccc(Cn2c(C)cn3c(C4CC(C)OC(C)C4)ncc3c2=O)cc1` (stereo not shown) [Example 84, 3-(2,6-dimethyltetrahydro-2H-pyran-4-yl)-7-(4-methoxybenzyl)-6-methylimidazo[1,5-a]pyrazin-8(7H)-one]: the concentration for half-maximal inhibition (IC50) against PDE1A worked out at 0.627 µM; against PDE1B, 0.103 µM; at PDE1C, 0.337 µM. In addition, the inhibition at 10 µM against PDE9 is -5%.

On to `COc1ccc(Cn2c(C)cn3c(C(C)(C)O)ncc3c2=O)cc1` [Example 86, 3-(2-hydroxypropan-2-yl)-7-(4-methoxybenzyl)-6-methylimidazo[1,5-a]pyrazin-8(7H)-one], for which the IC50 on PDE1A amounted to 0.193 µM; against PDE1B, 0.118 µM; on PDE1C, 0.214 µM. In addition, the inhibition at 10 µM on PDE9 was -11%.

For `Cc1cn2c(C3CC3(F)F)ncc2c(=O)n1Cc1cccc(F)c1` (stereo not shown) [Example 34, 3-(2,2-difluorocyclopropyl)-7-(3-fluorobenzyl)-6-methylimidazo[1,5-a]pyrazin-8(7H)-one], the IC50 stood at 0.331 µM against PDE1A, 0.359 µM against PDE1B and 0.093 µM against PDE1C. Moreover, on PDE9, the inhibition at 10 µM is 0%.

As to `Cc1noc(C)c1Cn1c(C)cn2c(C3CCOCC3)ncc2c1=O` [Example 81, 7-((3,5-dimethylisoxazol-4-yl)methyl)-6-methyl-3-(tetrahydro-2H-pyran-4-yl)imidazo[1,5-a]pyrazin-8(7H)-one], the inhibition at 10 µM amounted to 27% at PDE1A; 36% on PDE1B (read-out: PDE1B, % inhibition (at 10 μM)); 36% at PDE9. This molecule showed an IC50 against PDE1C of 2.31 µM.

Turning to `COc1ccc(Cn2c(C)cn3c(N4CCOC(C)(C)C4)ncc3c2=O)cc1` [Example 98, 3-(2,2-dimethylmorpholino)-7-(4-methoxybenzyl)-6-methylimidazo[1,5-a]pyrazin-8(7H)-one], the IC50 came out at 0.287 µM against PDE1A, 0.102 µM on PDE1B and 0.135 µM at PDE1C. The inhibition at 10 µM on PDE9 amounted to 4%.

`Cc1cn2c(C3CCOCC3)ncc2c(=O)n1Cc1cccc(C#N)c1` [Example 45, 3-((6-methyl-8-oxo-3-(tetrahydro-2H-pyran-4-yl)imidazo[1,5-a]pyrazin-7(8H)-yl)methyl)benzonitrile]: the “percent inhibition of PDE1A at 2 µM” value at PDE1A amounted to 64. The inhibition at 1 µM at PDE1B is 54%. Besides, at PDE1C, the IC50 stood at 0.149 µM. Further, on PDE9, the inhibition at 10 µM came out at 6%.

As for `Cc1cn2c(C3(F)CCOCC3)ncc2c(=O)n1Cc1cccc(F)c1` [Example 29, 7-(3-fluorobenzyl)-3-(4-fluorotetrahydro-2H-pyran-4-yl)-6-methylimidazo[1,5-a]pyrazin-8(7H)-one], the IC50 against PDE1A turned out to be 0.493 µM; against PDE1B it was 0.249 µM; against PDE1C, 0.05 µM. The inhibition at 10 µM at PDE9 was 16%.

Consider `CCc1ccccc1Cn1c(C)cn2c(C3CCOCC3)ncc2c1=O` [Example 49, 7-(2-ethylbenzyl)-6-methyl-3-(tetrahydro-2H-pyran-4-yl)imidazo[1,5-a]pyrazin-8(7H)-one], for which the “percent inhibition of PDE1A at 2 µM” value on PDE1A came to 44. The inhibition at 1 µM on PDE1B came out at 60%. In addition, on PDE1C, the IC50 was found to be 0.173 µM. Besides, the inhibition at 10 µM on PDE9 turned out to be 1%.

For the molecule `CCCc1ncc2c(=O)n(CC3CCCCC3)c(C)cn12` [Example 85, 7-(cyclohexylmethyl)-6-methyl-3-propylimidazo[1,5-a]pyrazin-8(7H)-one], the figures for the IC50 against PDE1A, on PDE1B and against PDE1C were 0.12 µM, 0.032 µM and 0.032 µM, respectively. Moreover, the inhibition at 10 µM at PDE9 was 7%.

For `O=c1c2cnc(C3CCOCC3)n2ccn1Cc1cccc(F)c1` [Example 9, 7-(3-Fluorobenzyl)-3-(tetrahydro-2H-pyran-4-yl)imidazo[1,5-a]pyrazin-8(7H)-one], the inhibition at 2 µM on PDE1A (read-out: PDE1A, % inhibition (at 2 μM)) was 68%; at PDE1B (read-out: PDE1B, % inhibition (at 2 μM)) it was 90%. At PDE1C, this molecule displayed an IC50 of 0.17 µM. At PDE9, the inhibition at 10 µM amounted to 2%.

For `Cc1cn2c([C@@H]3C[C@H]3C)ncc2c(=O)n1Cc1cccc(F)c1` (single isomer, unassigned; isomer 2) [35, isomer 2], the half-maximal inhibitory concentration (IC50) on PDE1A stood at 0.364 µM; against PDE1B, 0.166 µM; on PDE1C, 0.041 µM. At PDE9, the “% inhibition of PDE9 at 10 microM” value turned out to be 15%.

Turning to `Cc1cn2c([C@@H]3CCCOC3)ncc2c(=O)n1Cc1cccc(F)c1` (single isomer, unassigned; isomer 1) [100, isomer 1], the IC50 at PDE1A came to 0.306 µM; at PDE1B, 0.223 µM; at PDE1C, 0.043 µM. Moreover, the “% inhibition of PDE9 at 10 microM” value at PDE9 came to 11%.

On to `Cc1cn2c(C3CCOCC3)ncc2c(=O)n1Cc1ccccc1` [Example 16, 7-Benzyl-6-methyl-3-(tetrahydro-2H-pyran-4-yl)imidazo[1,5-a]pyrazin-8(7H)-one], for which the IC50 against PDE1A amounted to 0.085 µM; against PDE1B, 0.057 µM; against PDE1C it was 0.012 µM. Moreover, the inhibition at 10 µM against PDE9 was 19%.

Take `Cc1cn2c([C@@H]3CCCCO3)ncc2c(=O)n1Cc1cccc(F)c1` (single isomer, unassigned; isomer 1) [30, isomer 1]: on PDE1A (at 1 μM), the “PDE1A, % inhibition (at 1 μM)” value was 20%. Further, the IC50 against PDE1B is 0.615 µM; on PDE1C it was 0.225 µM. The “% inhibition of PDE9 at 10 microM” value on PDE9 is on record as −11%.

Take `Cc1cn2c(C3CCOCC3)ncc2c(=O)n1Cc1ccc(OCC2CC2)cc1` [Example 42, 7-(4-(cyclopropylmethoxy)benzyl)-6-methyl-3-(tetrahydro-2H-pyran-4-yl)imidazo[1,5-a]pyrazin-8(7H)-one]: the inhibition at 1 µM came out at 50% at PDE1A (read-out: PDE1A, % inhibition (at 1 μM)) and 55% on PDE1C (read-out: PDE1C, % inhibition (at 1 μM)). On PDE1B, this molecule displayed an IC50 of 0.155 µM. At PDE9, the inhibition at 10 µM turned out to be 15%.

For the molecule `Cc1cn2c(C3CCOCC3)ncc2c(=O)n1C` [Example 58, 6,7-dimethyl-3-(tetrahydro-2H-pyran-4-yl)imidazo[1,5-a]pyrazin-8(7H)-one], the inhibition at 10 µM is 58% on PDE1A; 44% at PDE1C (read-out: PDE1C, % inhibition (at 10 μM)); 36% against PDE9. On PDE1B, the IC50 was determined as 1.77 µM.

Turning to `COCC(C)(C)c1ncc2c(=O)n(Cc3ccc(OC)cc3)c(C)cn12` [Example 76, 3-(1-methoxy-2-methylpropan-2-yl)-7-(4-methoxybenzyl)-6-methylimidazo[1,5-a]pyrazin-8(7H)-one], the 50% inhibitory concentration (IC50) stood at 0.122 µM against PDE1A, 0.044 µM against PDE1B and 0.126 µM at PDE1C. In addition, the inhibition at 10 µM against PDE9 was -14%.

As for `Cc1cn2c(C3CCOCC3)ncc2c(=O)n1Cc1ccc(OC2CC2)cc1` [Example 39, 7-(4-cyclopropoxybenzyl)-6-methyl-3-(tetrahydro-2H-pyran-4-yl)imidazo[1,5-a]pyrazin-8(7H)-one], the figures for the 50% inhibitory concentration (IC50) against PDE1A, at PDE1B and against PDE1C were 0.413 µM, 0.118 µM and 0.364 µM, respectively. The inhibition at 10 µM at PDE9 is 23%.

`Cc1cn2c([C@@H]3C[C@@H]3C)ncc2c(=O)n1Cc1cccc(F)c1` (single isomer, unassigned; isomer 1) [35, isomer 1]: the IC50 against PDE1A is 0.193 µM; against PDE1B it was 0.075 µM; against PDE1C, 0.019 µM. In addition, on PDE9, the “% inhibition of PDE9 at 10 microM” value is −11%.

Take `Cc1cn2c(C3CCOCC3)ncc2c(=O)n1Cc1ccc(F)cc1` [Example 24, 7-(4-Fluorobenzyl)-6-methyl-3-(tetrahydro-2H-pyran-4-yl)imidazo[1,5-a]pyrazin-8(7H)-one]: the IC50 against PDE1A was 0.038 µM; on PDE1B, 0.043 µM; on PDE1C it was 0.017 µM. In addition, the inhibition at 10 µM against PDE9 was -1%.
